One experiment concerns the target T1, Bcl-2-related protein A1 (Mus musculus, UniProt Q07440).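 Note: confirmatory dose–response counterscreen on Bfl-1, used to check hits from a UBC13 polyubiquitin inhibitor campaign.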
T1 sequence (Q07440 whole entry): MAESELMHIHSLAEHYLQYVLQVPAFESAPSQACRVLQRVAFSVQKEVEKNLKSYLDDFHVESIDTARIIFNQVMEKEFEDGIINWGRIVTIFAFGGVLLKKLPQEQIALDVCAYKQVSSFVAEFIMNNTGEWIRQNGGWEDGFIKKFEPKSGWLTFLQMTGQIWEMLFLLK
In kind it is functional.

Experiment [1] addresses T2, Ubiquitin-conjugating enzyme E2 N (Homo sapiens, UniProt P61088).
T2 sequence (P61088 whole entry): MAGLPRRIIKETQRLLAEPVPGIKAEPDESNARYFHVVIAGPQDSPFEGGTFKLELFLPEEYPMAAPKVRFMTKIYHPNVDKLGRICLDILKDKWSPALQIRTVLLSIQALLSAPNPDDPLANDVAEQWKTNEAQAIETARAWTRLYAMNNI
The experiment is classed as functional.

Experiment [2] deals with T2, Ubiquitin-conjugating enzyme E2 N. The experiment is classed as functional. The source holds these as a separate data set.
Experiment [3] concerns the target T3, Apoptotic protease-activating factor 1 (Homo sapiens, UniProt O14727).
T3 sequence (O14727 whole entry): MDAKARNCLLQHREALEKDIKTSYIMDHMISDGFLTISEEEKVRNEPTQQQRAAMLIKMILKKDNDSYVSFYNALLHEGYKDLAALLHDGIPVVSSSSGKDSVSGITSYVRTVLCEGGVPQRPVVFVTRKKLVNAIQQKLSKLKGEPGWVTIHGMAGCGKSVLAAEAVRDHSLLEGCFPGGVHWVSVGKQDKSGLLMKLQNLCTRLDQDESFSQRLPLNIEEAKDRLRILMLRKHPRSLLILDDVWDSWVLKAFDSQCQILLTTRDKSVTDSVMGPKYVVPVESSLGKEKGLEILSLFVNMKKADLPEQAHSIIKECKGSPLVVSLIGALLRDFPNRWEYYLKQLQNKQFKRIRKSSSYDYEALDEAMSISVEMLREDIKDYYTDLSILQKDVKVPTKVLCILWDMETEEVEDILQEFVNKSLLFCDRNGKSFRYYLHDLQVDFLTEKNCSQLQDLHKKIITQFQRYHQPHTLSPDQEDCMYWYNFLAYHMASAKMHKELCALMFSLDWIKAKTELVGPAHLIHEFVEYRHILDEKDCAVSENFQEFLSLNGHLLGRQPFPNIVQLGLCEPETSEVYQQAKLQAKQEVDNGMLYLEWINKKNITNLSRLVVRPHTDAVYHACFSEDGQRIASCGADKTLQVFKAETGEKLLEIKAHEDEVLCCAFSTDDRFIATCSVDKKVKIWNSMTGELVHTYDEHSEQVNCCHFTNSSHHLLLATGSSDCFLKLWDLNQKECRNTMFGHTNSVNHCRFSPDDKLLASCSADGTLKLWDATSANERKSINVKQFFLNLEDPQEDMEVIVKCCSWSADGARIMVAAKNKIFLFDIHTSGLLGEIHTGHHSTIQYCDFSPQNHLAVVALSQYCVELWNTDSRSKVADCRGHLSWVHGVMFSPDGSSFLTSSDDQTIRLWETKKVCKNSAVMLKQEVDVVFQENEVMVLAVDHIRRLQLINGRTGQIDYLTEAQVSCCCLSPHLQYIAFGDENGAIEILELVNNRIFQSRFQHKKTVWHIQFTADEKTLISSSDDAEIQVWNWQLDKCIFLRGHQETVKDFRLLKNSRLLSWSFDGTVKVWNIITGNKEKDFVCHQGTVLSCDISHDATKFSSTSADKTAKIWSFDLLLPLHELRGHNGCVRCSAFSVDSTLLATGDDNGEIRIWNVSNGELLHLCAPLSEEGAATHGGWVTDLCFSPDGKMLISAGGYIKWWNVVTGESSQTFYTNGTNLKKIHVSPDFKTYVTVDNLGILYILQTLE
In kind it is functional.

Another experiment relates to Vero. Briefly: cells. The experiment is classed as functional, cell-based. The note with it: Chlorocebus sabaeus.
In experiment [4] the target is Beta-2 adrenergic receptor (Homo sapiens, UniProt P07550). Briefly: ADRB2 activation measured by internalization – cell-based, FAP fluorogen, flow cytometry, cherry pick 1, dose response (AID 588763). In kind it is functional.
Sequence of Beta-2 adrenergic receptor (P07550 whole entry): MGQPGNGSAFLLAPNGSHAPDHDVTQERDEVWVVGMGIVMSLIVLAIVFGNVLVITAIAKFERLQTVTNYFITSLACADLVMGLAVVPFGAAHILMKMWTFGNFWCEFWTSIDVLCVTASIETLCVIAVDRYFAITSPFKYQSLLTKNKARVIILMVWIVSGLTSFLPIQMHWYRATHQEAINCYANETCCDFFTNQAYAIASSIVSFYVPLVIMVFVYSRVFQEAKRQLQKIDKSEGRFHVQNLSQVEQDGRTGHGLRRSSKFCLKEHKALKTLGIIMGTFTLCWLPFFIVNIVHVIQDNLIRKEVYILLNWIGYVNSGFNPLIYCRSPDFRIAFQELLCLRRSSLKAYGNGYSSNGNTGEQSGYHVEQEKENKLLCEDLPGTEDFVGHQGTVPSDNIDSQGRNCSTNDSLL
Experiment [5] addresses T4, DNA repair and recombination protein RAD54-like (Homo sapiens, UniProt Q92698).
T4 sequence (Q92698 whole entry): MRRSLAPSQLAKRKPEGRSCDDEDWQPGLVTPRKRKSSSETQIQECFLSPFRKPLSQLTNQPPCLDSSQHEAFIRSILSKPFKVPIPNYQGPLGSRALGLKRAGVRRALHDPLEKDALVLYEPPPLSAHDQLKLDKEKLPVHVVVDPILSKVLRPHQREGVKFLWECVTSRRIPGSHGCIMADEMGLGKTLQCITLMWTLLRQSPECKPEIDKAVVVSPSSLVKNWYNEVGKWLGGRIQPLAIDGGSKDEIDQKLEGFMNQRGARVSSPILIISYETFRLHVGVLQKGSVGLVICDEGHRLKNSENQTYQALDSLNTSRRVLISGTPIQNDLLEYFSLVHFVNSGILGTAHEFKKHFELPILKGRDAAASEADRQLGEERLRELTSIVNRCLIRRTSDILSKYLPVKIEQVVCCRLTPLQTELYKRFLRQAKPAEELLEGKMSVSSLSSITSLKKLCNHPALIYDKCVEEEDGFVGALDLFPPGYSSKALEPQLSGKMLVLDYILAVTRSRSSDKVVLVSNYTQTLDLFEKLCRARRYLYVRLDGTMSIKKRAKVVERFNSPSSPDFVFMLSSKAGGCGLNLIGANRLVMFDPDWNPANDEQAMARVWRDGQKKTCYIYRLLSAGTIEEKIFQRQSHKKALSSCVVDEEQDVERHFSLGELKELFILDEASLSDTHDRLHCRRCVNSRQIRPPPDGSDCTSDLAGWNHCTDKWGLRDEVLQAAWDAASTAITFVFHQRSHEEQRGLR
Briefly: RAD54 Holliday junction migration blockers – biochemical, fluorescence, cherry-picked samples, dose series, confirmation (AID 651657). The experiment is classed as functional.

The target of experiment [6] is T5, Rac GTPase-activating protein 1 (Homo sapiens, UniProt Q9H0H5).
T5 sequence (Q9H0H5 whole entry): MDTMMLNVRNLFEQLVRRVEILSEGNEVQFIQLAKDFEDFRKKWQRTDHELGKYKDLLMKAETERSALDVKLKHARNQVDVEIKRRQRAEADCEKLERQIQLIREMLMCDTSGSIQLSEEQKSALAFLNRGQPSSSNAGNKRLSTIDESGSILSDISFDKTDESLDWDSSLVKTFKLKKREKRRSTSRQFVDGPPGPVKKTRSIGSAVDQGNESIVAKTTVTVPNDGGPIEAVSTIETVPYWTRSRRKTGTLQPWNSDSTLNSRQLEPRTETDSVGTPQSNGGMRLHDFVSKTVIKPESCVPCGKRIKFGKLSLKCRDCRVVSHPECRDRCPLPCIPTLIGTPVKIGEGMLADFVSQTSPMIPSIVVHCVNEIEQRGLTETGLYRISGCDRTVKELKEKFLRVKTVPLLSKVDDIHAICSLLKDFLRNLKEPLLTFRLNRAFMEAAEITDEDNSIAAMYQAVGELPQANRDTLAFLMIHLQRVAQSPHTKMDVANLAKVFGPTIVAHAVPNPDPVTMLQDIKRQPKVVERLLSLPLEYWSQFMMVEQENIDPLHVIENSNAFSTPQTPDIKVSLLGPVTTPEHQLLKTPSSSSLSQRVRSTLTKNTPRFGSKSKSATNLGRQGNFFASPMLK
Briefly: blockers of MgcRacGAP-driven Rac1 GTP hydrolysis – biochemical, ADP Hunter fluorescence, primary and confirmatory, confirmation (AID 624330). In kind it is functional.

The target in another experiment is T6, Caspase-3 (Homo sapiens, UniProt P42574).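 Note: Dose-response selectivity test against caspase-3 for candidate inhibitors of sentrin-specific proteases (SENPs).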
T6 sequence (P42574 whole entry): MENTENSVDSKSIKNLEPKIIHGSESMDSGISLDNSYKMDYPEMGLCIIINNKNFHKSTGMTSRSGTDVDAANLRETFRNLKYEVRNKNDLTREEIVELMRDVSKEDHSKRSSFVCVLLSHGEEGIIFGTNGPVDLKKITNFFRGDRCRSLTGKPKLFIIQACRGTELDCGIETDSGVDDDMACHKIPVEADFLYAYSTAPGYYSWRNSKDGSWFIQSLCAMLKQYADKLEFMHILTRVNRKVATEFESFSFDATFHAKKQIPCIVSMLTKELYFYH
In kind it is functional.

The target of experiment [7] is T7, Sentrin-specific protease 7 (Homo sapiens, UniProt Q9BQF6).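 Note: Luminescence-based dose-response confirmation of ultra-high-throughput screening hits, measuring inhibition of SENP7.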
T7 sequence (Q9BQF6 whole entry): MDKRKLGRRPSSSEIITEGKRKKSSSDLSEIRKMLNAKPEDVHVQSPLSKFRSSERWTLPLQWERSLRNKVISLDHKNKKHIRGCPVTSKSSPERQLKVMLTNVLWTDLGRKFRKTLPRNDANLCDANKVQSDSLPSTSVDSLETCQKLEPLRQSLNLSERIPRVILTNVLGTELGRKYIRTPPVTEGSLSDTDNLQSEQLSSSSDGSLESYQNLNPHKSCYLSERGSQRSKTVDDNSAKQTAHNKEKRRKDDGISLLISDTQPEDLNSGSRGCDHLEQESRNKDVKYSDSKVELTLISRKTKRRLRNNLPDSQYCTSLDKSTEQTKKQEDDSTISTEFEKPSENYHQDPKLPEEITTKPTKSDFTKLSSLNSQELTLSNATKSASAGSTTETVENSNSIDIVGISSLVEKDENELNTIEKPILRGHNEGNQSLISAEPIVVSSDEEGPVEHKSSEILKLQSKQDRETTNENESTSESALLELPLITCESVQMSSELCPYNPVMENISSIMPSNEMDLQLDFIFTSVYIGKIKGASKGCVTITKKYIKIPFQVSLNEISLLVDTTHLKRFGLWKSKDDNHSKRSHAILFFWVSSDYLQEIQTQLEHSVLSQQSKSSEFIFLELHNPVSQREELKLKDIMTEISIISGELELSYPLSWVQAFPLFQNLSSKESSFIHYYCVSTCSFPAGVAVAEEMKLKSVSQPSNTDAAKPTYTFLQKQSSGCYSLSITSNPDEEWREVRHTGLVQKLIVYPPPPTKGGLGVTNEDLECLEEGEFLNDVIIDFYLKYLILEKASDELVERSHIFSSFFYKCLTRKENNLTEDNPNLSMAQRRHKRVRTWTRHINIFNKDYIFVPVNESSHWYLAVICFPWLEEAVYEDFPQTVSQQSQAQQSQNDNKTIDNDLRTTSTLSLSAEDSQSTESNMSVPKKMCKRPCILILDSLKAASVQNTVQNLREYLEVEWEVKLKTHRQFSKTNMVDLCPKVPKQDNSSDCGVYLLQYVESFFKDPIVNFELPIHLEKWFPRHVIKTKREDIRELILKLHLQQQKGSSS
In kind it is functional.

Experiment [8] concerns the target T8, Sentrin-specific protease 6 (Homo sapiens, UniProt Q9GZR1).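 Note: Luminescence-based dose-response confirmatory assay of SENP6 inhibition, following up an ultra-high-throughput screen.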
T8 sequence (Q9GZR1 whole entry): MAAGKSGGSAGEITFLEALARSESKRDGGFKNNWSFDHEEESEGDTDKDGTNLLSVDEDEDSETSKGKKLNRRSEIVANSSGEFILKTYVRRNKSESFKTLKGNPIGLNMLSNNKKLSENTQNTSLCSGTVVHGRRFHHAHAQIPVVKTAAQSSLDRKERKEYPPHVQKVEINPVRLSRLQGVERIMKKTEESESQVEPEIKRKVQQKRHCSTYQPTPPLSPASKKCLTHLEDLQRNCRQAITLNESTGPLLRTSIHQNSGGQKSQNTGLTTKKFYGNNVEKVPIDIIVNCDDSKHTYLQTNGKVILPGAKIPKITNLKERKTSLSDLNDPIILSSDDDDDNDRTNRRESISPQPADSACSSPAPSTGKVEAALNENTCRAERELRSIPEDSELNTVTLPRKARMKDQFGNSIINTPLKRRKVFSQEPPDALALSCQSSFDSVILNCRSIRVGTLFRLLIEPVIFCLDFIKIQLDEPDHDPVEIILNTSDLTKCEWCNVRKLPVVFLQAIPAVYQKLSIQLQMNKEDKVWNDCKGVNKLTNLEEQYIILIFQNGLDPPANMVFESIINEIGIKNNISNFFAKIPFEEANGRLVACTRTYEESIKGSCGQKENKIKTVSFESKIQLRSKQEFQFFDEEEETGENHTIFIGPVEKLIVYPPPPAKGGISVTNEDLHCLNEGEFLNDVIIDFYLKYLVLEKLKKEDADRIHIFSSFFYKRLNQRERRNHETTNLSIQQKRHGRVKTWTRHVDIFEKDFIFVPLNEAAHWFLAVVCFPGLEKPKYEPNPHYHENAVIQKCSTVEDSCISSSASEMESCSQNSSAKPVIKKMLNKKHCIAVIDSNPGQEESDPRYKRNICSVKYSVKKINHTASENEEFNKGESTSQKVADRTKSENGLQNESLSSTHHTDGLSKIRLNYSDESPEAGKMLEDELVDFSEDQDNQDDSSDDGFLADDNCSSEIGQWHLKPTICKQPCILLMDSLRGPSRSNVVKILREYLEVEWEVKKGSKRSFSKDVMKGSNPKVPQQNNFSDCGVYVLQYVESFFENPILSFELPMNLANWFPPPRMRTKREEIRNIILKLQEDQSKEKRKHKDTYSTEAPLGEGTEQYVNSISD
The experiment is classed as functional.

Experiment [9] has as its target T9, Sentrin-specific protease 8 (Homo sapiens, UniProt Q96LD8).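 Note: luminescence read-out of SENP8 inhibition, dose-response confirmation following an ultra-high-throughput screen.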
T9 sequence (Q96LD8 whole entry): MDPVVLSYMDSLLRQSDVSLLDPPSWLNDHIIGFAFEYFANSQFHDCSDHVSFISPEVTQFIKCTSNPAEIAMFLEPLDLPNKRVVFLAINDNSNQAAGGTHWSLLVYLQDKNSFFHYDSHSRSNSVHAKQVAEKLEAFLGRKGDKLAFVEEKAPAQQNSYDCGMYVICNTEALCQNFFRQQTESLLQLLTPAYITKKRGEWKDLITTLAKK
In kind it is functional.

Each structure is given as a SMILES string. Active and inactive are the calls of the source. Cut-off read from the data, not from the text of the source, for most assays here: actives have a measured IC50 and inactives only a lower limit.

Among the data in ChEMBL document CHEMBL1201862, “PubChem BioAssay data set” (2004) are IC50, EC50 and AC50 values, retold here.

What is called IC50 is the point on the concentration scale where inhibition reaches its midpoint. For orientation: EC50 means the concentration that produces a half-maximal response. Usually AC50 stands for the concentration at which the activity in the assay is half-maximal. Consider `COc1cc2nc(N3CCNCC3)nc(N)c2cc1OC`, for which the IC50 is 11.1 µM (active) on Bcl-2-related protein A1; 1.5 µM (active) in experiment [1]; 0.873 µM (active) in experiment [2]; 31.5 µM (active) in experiment [3]; 22.4 µM (active) in the experiment with Vero; 63.1 µM (active) in experiment [6]. In addition, the EC50 in [4] was 8.61 µM (inactive). Moreover, the AC50 in experiment [5] was 1.49 µM (active).
Take `O=C(CCc1ccccc1)c1ccc2c(c1)OCCCO2`: the IC50 is 28.9 µM (active) at Caspase-3, 9.59 µM (active) in experiment [7], 32.8 µM (active) in experiment [8] and 27.3 µM (active) in experiment [9].
